{"source": "patent US20010039295A1", "about": "“N,N'-bis(2-hydroxybenzyl)-ethylenediamine-N,N'-diacetic acid in iron chelating therapy” (priority 1999, published 2001)", "key": {"[1]": {"settings": "IV bolus, conscious rats, 200-300 mg/kg"}, "[2]": {"tested_on": "iron loaded Cebus apella monkey", "test": "Iron-balance study (iron clearing efficiency) in iron-loaded Cebus apella monkeys"}, "[3]": {"test": "Impact of IV chelator on blood pressure and heart rate in normotensive rats", "format": "in vivo, Sprague Dawley rats", "description": "Owing to the profound impact that DFO administered IV can have on blood pressure and cardiac function (Whitten, D. F.; Gibson, G. W.; Good, M. H.; Goodwin, J. F.; Brough, A. J. Studies in Acute Iron Poisoning. I. Desferrioxamine in the Treatment of Acute Iron Poisoning: Clinical Observations, Experimental Studies, and Theoretical Considerations. Pediatrics 1965, 36, 322-335), the manufacter recommends that the drug be given by this route at doses not to exceed 15 mg/kg/h (22 μmol/kg/h). In addition, patients suffering from acute iron toxicity should be given DFO IV only under circumstances of cardiovascular collapse, and even then at doses not to exceed 15 mg/kg/h for the first 1000 mg. Subject IV dosing, if needed, must be at a slower rate not to exceed 125 mg/h. Upon consideration of this, this example compares the impact of DFO and NaHBED administered IV on blood pressure and heart rate in normotensive rodents. The chelators were administered at a dose of 300 μmol/kg in a 0.5-ml volume either by IV bolus (n=5 for both drugs) or by IV infusion over a 20-min period (n=5 for NaHBED, n=4 for DFO) in accordance with the following procedure.\nThe basic procedure has been described in an earlier publication (Bergeron, R. J.; Wiegand, J.; Sninsky, C. A.; Katovich, M. J. The Impact of Polyamine Analogues on the Blood Pressure of Normotensive and Hypertensive Rats. Clin. Exp. Hypertension 1995, 17, 1197-1217). Briefly, normotensive adult male Sprague Dawley rats (400 g) were anesthetized with sodium pentobarbital (55 mg/kg IP). After the neck and shoulder areas were prepared for surgery, an incision was made into the neck area. The proximal end of the carotid artery was tied off with 3-0 silk; the other end was clamped. Once a piece of PE-50 tubing was inserted approximately 3 cm into the artery and tied into place; the tubing was skin tunneled to the shoulder area. The jugular vein was cannulated using a similar procedure. Both of the tubings were flushed with heparin (100 U/ml); a stylet was inserted.\nApproximately 24 h after the surgery, the animals were placed into individual cages and were connected to a blood pressure transducer (ADInstrurnents, Inc., Milford, MA) via the carotid catheter. […]\nAfter a ½-h stabilization period, 0.5 ml of saline was administered as an IV bolus via the jugular vein catheter, and the blood pressure and heart rate were monitored for 5 min. […] The blood pressure and heart rate readings were taken for 1 h post-drug, during which the animals were unrestrained.\nRats receiving the drug as a 20-min IV infusion (n=5 for HBED, n=4 for DFO) were allowed to acclimate as above. […] Blood pressure and heart rate were monitored during the infusion and for one hour thereafter."}, "[4]": {"settings": "typical, parenteral therapy; cited from earlier work"}, "[5]": {"tested_on": "iron loaded Cebus apella monkey", "settings": "Cebus apella monkey screen, DFOM subcutaneous (Bergeron et al. 1993; Peter et al. 1994); cited from earlier work"}, "[6]": {"settings": "given orally to human patients; cited from earlier work"}, "[7]": {"settings": "IV push, single dose 75 μmol/kg"}, "[8]": {"settings": "300 μmol/kg, 20-min IV infusion"}}, "note": "Structures can show the parent of a compound that is named as a salt."}
{"molecule": "O=C(O)CN(CCN(CC(=O)O)Cc1ccccc1O)Cc1ccccc1O", "note": "[HBED monosodium salt, N,N′-bis(2-hydroxybenzyl)-ethylenediamine-N,N′-diacetic acid]", "values": [{"measurement": "side-effects", "setting": "[1]", "result": "no apparent side-effects"}, {"measurement": "net iron excretion relative to similar doses of subcutaneous DFOM", "setting": "[2]; IV push 75 μmol/kg vs subcutaneous DFOM", "result": "nearly three times"}, {"measurement": "share of excreted iron in the stool", "setting": "[2]; [7]", "result": 70, "unit": "%"}, {"measurement": "share of excreted iron in the urine", "setting": "[2]; [7]", "result": 30, "unit": "%"}, {"measurement": "effect on blood pressure", "setting": "[3]; 300 μmol/kg IV bolus", "result": "no effect"}, {"measurement": "effect on heart rate", "setting": "[3]; 300 μmol/kg IV bolus", "result": "no effect"}, {"measurement": "effect on blood pressure", "setting": "[3]; [8]", "result": "no effect"}, {"measurement": "effect on heart rate", "setting": "[3]; [8]", "result": "no effect"}]}
{"molecule": "CC(=O)N(O)CCCCCNC(=O)CCC(=O)N(O)CCCCCNC(=O)CCC(=O)N(O)CCCCCN", "note": "[DFO, deferoxamine B]", "values": [{"measurement": "share of the compound administered that binds iron", "setting": "[4]", "result": "≤ 5", "unit": "%"}, {"measurement": "activity compared with HBED or its dimethyl ester given orally", "setting": "[5]", "result": "significantly higher activity"}]}
{"molecule": "O=C(O)CN(CCN(CC(=O)O)Cc1ccccc1O)Cc1ccccc1O", "note": "[HBED, N,N′-bis(2-hydroxybenzyl)-ethylenediamine-N,N′-diacetic acid]", "values": [{"measurement": "iron excretion level", "setting": "[6]", "result": "ineffective for the treatment of iron overload"}]}
